Here are results for 1 compound from US20260023068A1, “USE OF A FBXO42 SPECIFIC INHIBITOR IN TREATING NOTCH SIGNALING-DEPENDENT DISEASE” (WESTLAKE UNIVERSITY, priority 2022, published 2026).

Assay [1] relates to global protein ubiquitination. In words: Global mass spectrometry-based analysis of protein ubiquitination. Format: cell-based. The following applies: global ubiquitination changes upon MLN4924 treatment (FIGS. 5E and 5F). The procedure:
(A) Endogenous RBPJ ubiquitination was measured under FBXO42 overexpression after immunoprecipitation with antibody against RBPJ and immunoblotted for Ub. Five percent lysate was used as the input control. (B) cSFB-RBPJ, hemagglutinin-ubiquitin (HA-Ub) and Myc-FBXO42 WT or AK mutant were cotransfected into HEK293T cells as indicated and treated with MG132 for 4 h. The cell lysates were incubated with S beads and analyzed by western blotting for RBPJ polyubiquitination detection. (C) Peptide sequence with ubiquitination modification identified in WT and FBXO42 KO cells. (D) HEK293T cells were cotransfected with Myc-FBXO42, HA-Ub WT along with cSFB-RBPJ WT or its lysine mutants as indicated. The cell lysates were incubated with S beads and analyzed by western blotting for RBPJ polyubiquitination detection. (E) Summary of identified peptides in global ubiquitination analysis upon MLN4924 treatment or FBXO42 depletion. (F) Percentage of ubiquitinated peptides among different groups. (G and H) Gene Ontology analysis of these proteins with differential ubiquitination modification. (I and J) Venn diagram showing the overlap between identified differential proteins with reported Notch interactors.
Global protein ubiquitination analysis was performed according to the manufacture's guidance (5562, CST). […]

The subject of assay [2] is Notch target genes HES1, HES5 and c-MYC. In words: qPCR of Notch target genes in HEK293T cells. Format: cell-based, human. The following applies: mRNA, qPCR (FIG. 4O). A general note: In qPCR the cycle at which signal appears reflects the starting amount.
For assay [3], the system named is JURKAT and HSB2 cells. In words: Cell viability, cell counting kit-8 assay. To be noted: JURKAT and HSB2, concentration gradient, 36 h, CCK-8 (FIG. 12L). Format: cell-based, human. The procedure: (§1) FBXO42-KO cells were rescued with WT FBXO42 or F-box deletion mutant and were used in the following studies. (A-C) The mRNA levels of Notch target genes in the treated HEK293T (A), JURKAT (B) and HSB2 (C) cells were determined by qPCR. (D-G) The invasion abilities of the treated JURKAT (D) and HSB2 (F) cells were evaluated using a 3D culture system with Matrigel. Scale bars, 50 μm. The respective average diameter of the spheres in D and F was summarized, respectively (E and G). (H-K) Anchorage-independent growth of the rescued JURKAT (H) and HSB2 (J) cells was measured using a soft agar colony formation assay. The number of colonies in H and J was counted and summarized, respectively (I and K). (L) JURKAT and HSB2 cells were treated with MLN4924 in a concentration-gradient manner for 36 h and then evaluated for the cell viability using cell counting kit-8 assay. (M and N) The expression of Notch target genes in MLN4924-treated JURKAT (M) and HSB2 (N) cells were determined by qPCR. (O-R) Anchorage-independent growth of MLN4924-treated JURKAT (0) and HSB2 (Q) cells was measured using soft agar colony formation assays. The number of colonies was counted and summarized (P and R). (A-R, n=3) The data are shown as the mean±SEM from the independent experiments. P values were calculated using one-way ANOVA for multiple comparisons or two-tailed Student's t-tests. *P<0.05, ** P<0.01, *** P<0.001.
On the technique in general: Formazan colour is commonly taken as a measure of viable cells.

The test system of assay [4] is Notch target genes in JURKAT and HSB2 cells. Kind of assay: qPCR of Notch target genes in leukemia cells. Format: cell-based, human. To be noted: JURKAT and HSB2, qPCR (FIGS. 12M and 12N). The procedure: as §1, with “P<0.001. […]” for “P<0.001.”
The test system of assay [5] is JURKAT and HSB2 cells. In words: Soft agar colony formation assay (anchorage-independent growth). Format: cell-based, human. The following applies: JURKAT and HSB2, soft agar colony formation (FIG. 12O-R). The procedure:
as §1

With `NS(=O)(=O)OC[C@@H]1C[C@@H](n2ccc3c(N[C@H]4CCc5ccccc54)ncnc32)C[C@@H]1O` [MLN4924], the “percentage of ubiquitinated peptides” value in assay [1] was “decreased”. In assay [2], the “expression of Notch target genes HES1, HES5 and c-MYC” value was “suppressed”. For the same compound, the “cell viability of leukemia cells” value in the assay with JURKAT and HSB2 cells [3] is recorded as “diminished”. Besides, in assay [4], the “Notch target gene expression of leukemia cells” value is “diminished”. Further, the “anchorage-independent growth of leukemia cells” value in the assay with JURKAT and HSB2 cells [5] is recorded as “diminished”.
